What is called IC50 is the point on the concentration scale where inhibition reaches its midpoint. Low readings indicate inhibition by little substance, high ones a need for much substance.

Experimental findings from patent US10662214B2, “Compound of 4′-thionucleoside, as well as preparation method therefor, pharmaceutical composition thereof and application thereof” (Sichuan Kelun-Biotech Biopharmaceutical Co., Ltd., priority 2015, dated 2020) are described below.

Data set [1] relates to gastric cancer cell NCI-N87. Nature of the data set: CCK-8 inhibition of proliferation, NCI-N87. It is filed as cell-based, human. Conditions: for inhibitory effect on gastric cancer cell NCI-N87 (in words): FIG. 1: 5-10000 nM; for IC50: Homo sapiens, NCI-N87, CCK-8, 72 h incubation. The protocol:
(§1) The tumor cell lines employed in the present experiment were gastric cancer cell NCI-N87 (obtained from Guangzhou Jennio Biological Technology Co., Ltd.), colorectal cancer cell HCT-116 (obtained from Chengdu Center for Safety Evaluation of Drugs), colorectal cancer cell HCT-15 and pancreatic cancer cell BxPC-3 (both obtained from ATCC, US).
(§2) Each of the cell lines is cultured in a corresponding culture medium (RPMI-1640, IMDM and L-15 culture medium (manufacturer: Gibco)) supplemented with 10% heat inactivated Fetal Bovine Serum (manufacturer: Sigma), in an incubator at 37° C. and 5% CO2.
(§3) For each type of tumor cells, a blank group, a vehicle group (containing 1‰ DMSO) and 8 groups with a test compound at concentrations of 5 nM, 10 nM, 50 nM, 100 nM, 500 nM, 1000 nM, 5000 nM, and 10000 nM (with each concentration in triplicate) were set.
(§4) Appropriate amounts of test compounds were weighted, and dissolved in DMSO (cell culture grade, Sigma) to prepare stock solutions of various concentration gradients according to desired concentrations. During incubation, they were diluted by 1000 times as necessary, and incubation solutions with various drug concentrations were prepared (compound stock solution:medium containing 2% FBS=1:1000).
(§5) The experiment was performed according to a CCK-8 method as described below. Cancer cells to be tested were seeded in a 96-well culture plate at a concentration of 5˜10×10^4/mL (100 μL/well), followed by incubation at 37° C. and 5% CO2 for 24 h. The medium was discarded, and incubation solutions with different drug concentrations (200 μL) were respectively added to each well, and the cells were further incubated for 72 h. After the incubation, a CCK-8 solution (20 μL/well) was added to each well to be tested, and the incubation was continued for 4 h in the incubator. OD values at two wavelengths (Detection wavelength: 450 nm, and reference wavelength: 650 nm) were determined on a multifunctional fully-automatic microplate reader.
(§6) The inhibitory rate of tumor cell growth was calculated according to the following formula: Inhibitory rate=[(ODvehicle−ODblank)−(ODdrug−ODblank)]/(ODvehicle−ODblank)*100%
(§7) Based on the inhibitory rate, a concentration-inhibitory rate curve was fit using GraphPad prism 5.0 software, and IC50 was calculated.

In data set [2] the test system is pancreatic cancer cell BxPC-3. Nature of the data set: CCK-8 inhibition of proliferation, BxPC-3. It is filed as cell-based, human. Conditions: for inhibitory effect on pancreatic cancer cell BxPC-3 (in words): FIG. 1: 5-10000 nM; for IC50: Homo sapiens, BXPC-3, CCK-8, 72 h incubation. The protocol:
as §1, §2, §3, §4, §5, §6, §7

A short description of data set [3]: Oral toxicity test in mice (administration for 7 days). It is filed as in vivo. Conditions: once per day for 7 days. The protocol:
Normal Male and female Kunming mice (SPF grade, obtained from Laboratory Animal Center in Sichuan Academy of Chinese Medicine Science) were randomized by weight into groups. The test compound and vehicle control were formulated according to Experimental example 2. The dosage volume was 10 mL/kg, and the administration was performed by oral gavage, once per day for 7 consecutive days.

Data set [4] is described as follows: Intravenous toxicity test in mice (administration for 7 days). It is filed as in vivo. The note with it: mouse, in vivo, iv. The text has this:
This test was used to investigate the toxic reactions after intravenous administration of compound C8 to normal KM mice for 7 consecutive days.
KM mice passing the quarantine control were randomized into 4 groups (3 mice/gender/group). The test compound and vehicle control were formulated according to Experimental example 2. The mortality, appearance, behavior, mental status, secretion and excreta etc. of the animals were observed every day for 7 consecutive days after the administration, and the animals were anatomized on day 8.

The subject of data set [5] is colorectal cancer cell HCT-15. Put plainly: CCK-8 inhibition of proliferation, HCT-15. It is filed as cell-based, human. Conditions: for inhibitory effect on colorectal cancer cell HCT-15 (in words): FIG. 1: 5-10000 nM; for IC50: Homo sapiens, HCT-15, CCK-8, 72 h incubation. The protocol:
as §1, §2, §3, §4, §5, §6, §7

Each structure is given as a SMILES string.

As to `CC(C)OC(=O)[C@H](C)NP(=O)(OC[C@H]1S[C@@H](n2ccc(N)nc2=O)[C@@H](F)[C@@H]1O)Oc1ccc2ccoc2c1` (stereo partly drawn) [Compound C19, (S)-isopropyl 2-(((((2R,3S,4S,5R)-5-(4-amino-2-oxopyrimidin-1(2H)-yl)-4-fluoro-3-hydroxytetrahydrothiophen-2-yl)methoxy)(benzofuran-6-yloxy)phosphoryl)amino)propanoate], in data set [1], the “inhibitory effect on gastric cancer cell NCI-N87 (in words)” value was “excellent inhibitory effects” and the midpoint of inhibition, the IC50, lay at 350 nM. Moreover, in data set [2], the “inhibitory effect on pancreatic cancer cell BxPC-3 (in words)” value is “excellent inhibitory effects” and the IC50 was found to be 680 nM.

`CC(C)OC(=O)[C@H](C)NP(=O)(OC[C@H]1S[C@@H](n2ccc(N)nc2=O)[C@@H](F)[C@@H]1O)Oc1ccc(F)c2c1CCO2` (stereo partly drawn) [Compound C17, (S)-isopropyl 2-(((((2R,3S,4S,5R)-5-(4-amino-2-oxopyrimidin-1(2H)-yl)-4-fluoro-3-hydroxytetrahydrothiophen-2-yl)methoxy)((7-fluoro-2,3-dihydrobenzofuran-4-yl)oxy)phosphoryl)amino)propanoate]: in data set [1], the “inhibitory effect on gastric cancer cell NCI-N87 (in words)” value is reported as “excellent inhibitory effects” and the IC50 turned out to be 630 nM. In data set [2], the “inhibitory effect on pancreatic cancer cell BxPC-3 (in words)” value is “excellent inhibitory effects” and the IC50 was found to be 3800 nM.

With `Nc1ccn([C@@H]2S[C@H](CO)[C@@H](O)[C@@H]2F)c(=O)n1` [Compound A, 1-((2R,3S,4S,5R)-3-fluoro-4-hydroxy-5-(hydroxymethyl)tetrahydrothiophen-2-yl)cytosine, reference compound], the “dosage at which death of animals occurred” value in data set [3] (oral gavage) is “about 77 μmol/kg”. Moreover, the “Results: mortality (3 Male + 3 Female)” value in data set [3] (~77 μmol/kg oral gavage) was “symptoms, and two”. Also, in data set [4], the “body weight decrease on day 8, female mice” value was found to be 20.2% and the “body weight decrease on day 8, male mice” value is 18.1%. In addition, the “symptoms observed on day 8” value in data set [4] (20 mg/kg) was “a hunched stance and weight loss”.

Take `CC(C)OC(=O)[C@H](C)NP(=O)(OC[C@H]1S[C@@H](n2ccc(N)nc2=O)[C@@H](F)[C@@H]1O)Oc1cccc2c1OCCO2` (stereo partly drawn) [Compound C16, (S)-isopropyl 2-(((((2R,3S,4S,5R)-5-(4-amino-2-oxopyrimidin-1(2H)-yl)-4-fluoro-3-hydroxytetrahydrothiophen-2-yl)methoxy)((2,3-dihydrobenzo[b][1,4]dioxin-5-yl)oxy)phosphoryl)amino)propanoate]: in data set [1], the “inhibitory effect on gastric cancer cell NCI-N87 (in words)” value is on record as “excellent inhibitory effects” and 300 nM corresponded to half-maximal inhibition (IC50). For the same molecule, in data set [2], the “inhibitory effect on pancreatic cancer cell BxPC-3 (in words)” value is recorded as “excellent inhibitory effects” and the IC50 amounted to 1150 nM.

For `CC(C)OC(=O)[C@H](C)N[P@@](=O)(OC[C@H]1S[C@@H](n2ccc(N)nc2=O)[C@@H](F)[C@@H]1O)Oc1ccc2c(c1)OCO2` [Compound C13, (S)-isopropyl 2-(((R)-(((2R,3S,4S,5R)-5-(4-amino-2-oxopyrimidin-1 (2H)-yl)-4-fluoro-3-hydroxytetrahydrothiophen-2-yl)methoxy)(benzo[d][1,3]dioxol-5-yloxy)phosphoryl)amino)propanoate], in data set [1], the “inhibitory effect on gastric cancer cell NCI-N87 (in words)” value was “excellent inhibitory effect” and the IC50 is 550 nM.

`C[C@H](NP(=O)(OC[C@H]1S[C@@H](n2ccc(N)nc2=O)[C@@H](F)[C@@H]1O)Oc1ccccc1)C(=O)OCc1ccc(F)cc1` (stereo partly drawn) [Compound C15, (2S)-4-fluorobenzyl 2-(((((2R,3S,4S,5R)-5-(4-amino-2-oxopyrimidin-1(2H)-yl)-4-fluoro-3-hydroxytetrahydrothiophen-2-yl)methoxy)(phenoxy)phosphoryl)amino)propanoate]: in data set [5], the “inhibitory effect on colorectal cancer cell HCT-15 (in words)” value is given as “excellent inhibitory effects” and the midpoint of inhibition, the IC50, lay at 4080 nM. In addition, in data set [1], the “inhibitory effect on gastric cancer cell NCI-N87 (in words)” value is “excellent inhibitory effects” and the midpoint of inhibition, the IC50, lay at 240 nM. For the same molecule, in data set [2], the “inhibitory effect on pancreatic cancer cell BxPC-3 (in words)” value is “excellent inhibitory effects” and inhibition was half-maximal at 1800 nM (IC50).

Turning to `C[C@H](NP(=O)(OC[C@H]1S[C@@H](n2ccc(N)nc2=O)[C@@H](F)[C@@H]1O)Oc1ccccc1)C(=O)OCc1ccccc1` (stereo partly drawn) [Compound C2, (S)-benzyl 2-(((((2R,3S,4S,5R)-5-(4-amino-2-oxopyrimidin-1(2H)-yl)-4-fluoro-3-hydroxytetrahydrothiophen-2-yl)methoxy)(phenoxy)phosphoryl)amino)propanoate], in data set [5], the “inhibitory effect on colorectal cancer cell HCT-15 (in words)” value was “excellent inhibitory effects” and the IC50 is 2970 nM. Moreover, in data set [1], the “inhibitory effect on gastric cancer cell NCI-N87 (in words)” value is “excellent inhibitory effects” and half-maximal inhibition (IC50) was put at 250 nM. For the same molecule, in data set [2], the “inhibitory effect on pancreatic cancer cell BxPC-3 (in words)” value is reported as “excellent inhibitory effects” and 1280 nM corresponded to half-maximal inhibition (IC50).

Take `CC(C)OC(=O)[C@H](C)NP(=O)(OC[C@H]1S[C@@H](n2ccc(N)nc2=O)[C@@H](F)[C@@H]1O)Oc1ccc2c(c1)OCC2` (stereo partly drawn) [Compound C18, (S)-isopropyl 2-(((((2R,3S,4S,5R)-5-(4-amino-2-oxopyrimidin-1(2H)-yl)-4-fluoro-3-hydroxytetrahydrothiophen-2-yl)methoxy)((2,3-dihydrobenzofuran-6-yl)oxy)phosphoryl)amino)propanoate]: in data set [2], the “inhibitory effect on pancreatic cancer cell BxPC-3 (in words)” value is recorded as “excellent inhibitory effect” and it took 2740 nM to reach half-maximal inhibition (IC50).

On to `CC(C)OC(=O)[C@H](C)N[P@](=O)(OC[C@H]1S[C@@H](n2ccc(N)nc2=O)[C@@H](F)[C@@H]1O)Oc1ccc2c(c1)OCO2` [Compound C14, (S)-isopropyl 2-(((S)-(((2R,3S,4S,5R)-5-(4-amino-2-oxopyrimidin-1(2H)-yl)-4-fluoro-3-hydroxytetrahydrothiophen-2-yl)methoxy)(benzo[d][1,3]dioxol-5-yloxy)phosphoryl)amino)propanoate], for which, in data set [5], the “inhibitory effect on colorectal cancer cell HCT-15 (in words)” value was “excellent inhibitory effects” and the concentration for half-maximal inhibition (IC50) was 9780 nM. Also, in data set [1], the “inhibitory effect on gastric cancer cell NCI-N87 (in words)” value is reported as “excellent inhibitory effects” and half-maximal inhibition (IC50) required 180 nM. In addition, in data set [2], the “inhibitory effect on pancreatic cancer cell BxPC-3 (in words)” value is listed as “excellent inhibitory effects” and the IC50 was determined as 2820 nM.
